Assay results published in patent US12492173B2, “Herbicidal substituted N-tetrazolyl aryl carboxamides” (Bayer Aktiengesellschaft, priority 2019, dated 2025).

What was measured:
Type in all cases: in vivo
Lolium rigidum = assay: Post-emergence herbicidal action, LOLRI; conditions: dosage 80 g/ha
Procedure: (§1) [table] 2. Post-Emergence Herbicidal Action Against Harmful Plants Seeds of monocotyledonous and dicotyledonous weed and crop plants are laid out in sandy loam soil in wood-fiber pots, covered with soil and cultivated in a greenhouse under good growth conditions. 2 to 3 weeks after sowing, the test plants are treated at the one-leaf stage. The compounds of the invention, formulated in the form of wettable powders (WP) or as emulsion concentrates (EC), are then sprayed onto the green parts of the plants in the form of an aqueous suspension or emulsion at a water application rate equating to 600 to 800 l/ha, with addition of 0.2% wetting agent. After the test plants have been left to stand in the greenhouse under optimal growth conditions for about 3 weeks, the action of the preparations is assessed visually in comparison to untreated controls (herbicidal action in percent (%): 100% activity=the plants have died, 0% activity=like control plants). […] The tables below illustrate, in an exemplary manner, the post-emergence herbicidal action of the compounds according to the invention, the herbicidal activity being stated in percent. In the experiments that follow, herbicidal action of numerous inventive compounds and the known compounds that are structurally closest from D1 (WO 2012/028579 A1) and D2 (WO 2018/202535 A1) were compared under the above-specified conditions by the pre-emergence and post-emergence method. The example numbers given in the tables relate to the compounds disclosed in the respective documents. In addition to the compounds disclosed in D1 and D2, the following compounds V-1 to V-14 that are encompassed by D1 or D2 but are not compounds specified therein were used in the comparative experiments: • V-1: 2-(methylsulfanyl)-3-(methylsulfinyl)-N-(1-methyl-1H-tetrazol-5-yl)-4-(trifluoromethyl)benzamide • V-2: 2-(methylsulfanyl)-3-(methylsulfonyl)-N-(1-methyl-1H-tetrazol-5-yl)-4-(trifluoromethyl)benzamide • V-3: 2,3-bis(ethylsulfanyl)-N-(1-methyl-1H-tetrazol-5-yl)-4-(trifluoromethyl)benzamide • V-4: 2-chloro-3-(ethylsulfanyl)-N-(1-methyl-1H-tetrazol-5-yl)-4-(trifluoromethyl)benzamide • V-5: 2-chloro-4-iodo-3-(methylsulfanyl)-N-(1-methyl-1H-tetrazol-5-yl)benzamide • V-6: 2-chloro-4-iodo-3-(methylsulfinyl)-N-(1-methyl-1H-tetrazol-5-yl)benzamide • V-7: 2-chloro-4-iodo-3-(methylsulfonyl)-N-(1-methyl-1H-tetrazol-5-yl)benzamide • V-8: 2-bromo-3-(methylsulfanyl)-N-(1-methyl-1H-tetrazol-5-yl)-4-(trifluoromethyl)benzamide • V-9: 2-bromo-3-(methylsulfinyl)-N-(1-methyl-1H-tetrazol-5-yl)-4-(trifluoromethyl)benzamide • V-10: 2-bromo-3-(methylsulfonyl)-N-(1-methyl-1H-tetrazol-5-yl)-4-(trifluoromethyl)benzamide • V-11: 2-bromo-3-(ethylsulfanyl)-N-(1-methyl-1H-tetrazol-5-yl)-4-(trifluoromethyl)benzamide • V-12: 2-bromo-3-(ethylsulfinyl)-N-(1-methyl-1H-tetrazol-5-yl)-4-(trifluoromethyl)benzamide • V-13: 2-bromo-3-(ethylsulfonyl)-N-(1-methyl-1-1H-tetrazol-5-yl)-4-(trifluoromethyl)benzamide • V-14: 2-cyclopropyl-3-(ethylsulfanyl)-N-(1-methyl-1H-tetrazol-5-yl)-4-(trifluoromethyl)benzamide Herbicidal Pre-Emergence Action: […]

Hordeum murinum = assay: Post-emergence herbicidal action, HORMU; design: key: % herbicidal action: 100 = plants died, 0 = like control
Procedure: as §1

Digitaria sanguinalis [1] = assay: Post-emergence herbicidal action, DIGSA; design: key: % herbicidal action: 100 = plants died, 0 = like control
Procedure: as §1

Digitaria sanguinalis [2] = assay: Pre-emergence herbicidal action, DIGSA; conditions: dosage 320 g/ha, scored visually after 3 weeks vs untreated controls (100% = plants have died)
From the text: 1. Pre-Emergence Herbicidal Action Against Harmful Plants Seeds of monocotyledonous and dicotyledonous weed plants and crop plants are laid out in sandy loam soil in wood-fiber pots and covered with soil. The compounds of the invention, formulated in the form of wettable powders (WP) or as emulsion concentrates (EC), are then applied to the surface of the covering soil in the form of an aqueous suspension or emulsion at a water application rate equating to 600 to 800 l/ha, with addition of 0.2% wetting agent. After the treatment, the pots are placed in a greenhouse and kept under good growth conditions for the trial plants. The damage to the test plants is scored visually after a test period of 3 weeks by comparison with untreated controls (herbicidal activity in percent (%): 100% activity=the plants have died, 0% activity=like control plants). […] The tables below illustrate, in an exemplary manner, the […] herbicidal action of the compounds according to the invention, the herbicidal activity being stated in percent. [table] In the experiments that follow, herbicidal action of numerous inventive compounds and the known compounds that are structurally closest from D1 (WO 2012/028579 A1) and D2 (WO 2018/202535 A1) were compared under the above-specified conditions by the pre-emergence and post-emergence method. The example numbers given in the tables relate to the compounds disclosed in the respective documents. In addition to the compounds disclosed in D1 and D2, the following compounds V-1 to V-14 that are encompassed by D1 or D2 but are not compounds specified therein were used in the comparative experiments: • V-1: 2-(methylsulfanyl)-3-(methylsulfinyl)-N-(1-methyl-1H-tetrazol-5-yl)-4-(trifluoromethyl)benzamide • V-2: 2-(methylsulfanyl)-3-(methylsulfonyl)-N-(1-methyl-1H-tetrazol-5-yl)-4-(trifluoromethyl)benzamide • V-3: 2,3-bis(ethylsulfanyl)-N-(1-methyl-1H-tetrazol-5-yl)-4-(trifluoromethyl)benzamide • V-4: 2-chloro-3-(ethylsulfanyl)-N-(1-methyl-1H-tetrazol-5-yl)-4-(trifluoromethyl)benzamide • V-5: 2-chloro-4-iodo-3-(methylsulfanyl)-N-(1-methyl-1H-tetrazol-5-yl)benzamide • V-6: 2-chloro-4-iodo-3-(methylsulfinyl)-N-(1-methyl-1H-tetrazol-5-yl)benzamide • V-7: 2-chloro-4-iodo-3-(methylsulfonyl)-N-(1-methyl-1H-tetrazol-5-yl)benzamide • V-8: 2-bromo-3-(methylsulfanyl)-N-(1-methyl-1H-tetrazol-5-yl)-4-(trifluoromethyl)benzamide • V-9: 2-bromo-3-(methylsulfinyl)-N-(1-methyl-1H-tetrazol-5-yl)-4-(trifluoromethyl)benzamide • V-10: 2-bromo-3-(methylsulfonyl)-N-(1-methyl-1H-tetrazol-5-yl)-4-(trifluoromethyl)benzamide • V-11: 2-bromo-3-(ethylsulfanyl)-N-(1-methyl-1H-tetrazol-5-yl)-4-(trifluoromethyl)benzamide • V-12: 2-bromo-3-(ethylsulfinyl)-N-(1-methyl-1H-tetrazol-5-yl)-4-(trifluoromethyl)benzamide • V-13: 2-bromo-3-(ethylsulfonyl)-N-(1-methyl-1-1H-tetrazol-5-yl)-4-(trifluoromethyl)benzamide • V-14: 2-cyclopropyl-3-(ethylsulfanyl)-N-(1-methyl-1H-tetrazol-5-yl)-4-(trifluoromethyl)benzamide Herbicidal Pre-Emergence Action: […]

Lolium multiflorum = assay: Post-emergence herbicidal action, LOLMU; design: key: % herbicidal action: 100 = plants died, 0 = like control
Procedure: as §1

Cyperus esculentus = assay: Pre-emergence herbicidal action, CYPES; design: key: % activity: 100 = plants have died, 0 = like control plants; conditions: comparative experiment
Summary of the method: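 Visual scoring after 3 weeks in the greenhouse, relative to untreated pots, gave percent activity, where 100% means dead plants and 0% equals controls. Treatment was a pre-emergence soil-surface spray of WP or EC formulations in water (600 to 800 l/ha, 0.2% wetting agent) over seeds covered in sandy loam.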

## Cn1nnnc1NC(=O)c1ccc(C(F)(F)F)c(C[S+]([O-])C2CC2)c1Cl (racemic) [Example 1-303]
Lolium rigidum
  herbicidal action LOLRI: 90%
Hordeum murinum; post-emergence, dosage 80 g/ha
  herbicidal action HORMU: 100%

## COCC[S+]([O-])Cc1c(C(F)(F)F)ccc(C(=O)Nc2nnnn2C)c1Cl (racemic) [Example 1-306]
Digitaria sanguinalis [1]; Dosage 80 g/ha
  herbicidal action DIGSA: 100
Digitaria sanguinalis [2]
  herbicidal activity DIGSA: 100%

## Cn1nnnc1NC(=O)c1ccc(C(F)(F)F)c(C[S+]([O-])CC(F)(F)F)c1Cl (racemic) [Example 1-312]
Digitaria sanguinalis [1]; post-emergence, dosage 80 g/ha
  herbicidal action DIGSA: 100%
Hordeum murinum; post-emergence, dosage 80 g/ha
  herbicidal action HORMU: 80%
Digitaria sanguinalis [2]
  herbicidal activity DIGSA: 100%

## CSCc1c(C(F)(F)F)ccc(C(=O)Nc2nnnn2C)c1C [Example 1-83]
Lolium multiflorum; post-emergence, dosage 80 g/ha
  herbicidal action LOLMU: 80%

## CSc1c(C(=O)Nc2nnnn2C)ccc(C(F)F)c1C[S+](C)[O-] (centres unmarked) [Example 1-171]
Digitaria sanguinalis [1]; Dosage 80 g/ha
  herbicidal action DIGSA: 100
Digitaria sanguinalis [2]
  herbicidal activity DIGSA: 100%

## Cn1nnnc1NC(=O)c1ccc(C(F)(F)F)c(CSC2CC2)c1Cl [Example 1-302]
Lolium rigidum
  herbicidal action LOLRI: 90%
Hordeum murinum; post-emergence, dosage 80 g/ha
  herbicidal action HORMU: 90%

## Cn1nnnc1NC(=O)c1ccc(C(F)(F)F)c(CSCC(F)(F)F)c1Cl [Example 1-311]
Hordeum murinum; Dosage 80 g/ha
  herbicidal action HORMU: 100

## Cn1nnnc1NC(=O)c1ccc(C(F)(F)F)c(CS(=O)(=O)CC2CC2)c1Cl [Example 1-316]
Digitaria sanguinalis [1]; Dosage 80 g/ha
  herbicidal action DIGSA: 100
Digitaria sanguinalis [2]
  herbicidal activity DIGSA: 100%

## CSCc1c(C(F)F)ccc(C(=O)Nc2nnnn2C)c1Cl [Example 1-320]
Cyperus esculentus; 20 g of a.i./ha
  Herbicidal action against CYPES: 80
Lolium multiflorum; Dosage 80 g/ha
  herbicidal action LOLMU: 80

## Cn1nnnc1NC(=O)c1ccc(C(F)F)c(CS(C)(=O)=O)c1Cl [Example 1-322]
Lolium multiflorum; post-emergence, dosage 80 g/ha
  herbicidal action LOLMU: 90%

## CCSCc1c(C(F)F)ccc(C(=O)Nc2nnnn2C)c1Cl [Example 1-323]
Lolium multiflorum; post-emergence, dosage 80 g/ha
  herbicidal action LOLMU: 90%

## CCS(=O)(=O)Cc1c(C(F)F)ccc(C(=O)Nc2nnnn2C)c1Cl [Example 1-325]
Lolium multiflorum; Dosage 80 g/ha
  herbicidal action LOLMU: 90

## Cn1nnnc1NC(=O)c1ccc(I)c(CS(C)(=O)=O)c1Cl [Example 1-364]
Digitaria sanguinalis [1]; Dosage 80 g/ha
  herbicidal action DIGSA: 100
Digitaria sanguinalis [2]
  herbicidal activity DIGSA: 100%

## CCSCc1c(C(F)(F)F)ccc(C(=O)Nc2nnnn2C)c1Br [Example 1-383]
Cyperus esculentus; 80 g of a.i./ha
  Herbicidal action against CYPES: 100
Lolium multiflorum; post-emergence, dosage 80 g/ha
  herbicidal action LOLMU: 90%

## Cn1nnnc1NC(=O)c1ccc(C(F)(F)F)c(CS(C)(=O)=O)c1C(F)(F)C(F)(F)F [Example 1-552]
Digitaria sanguinalis [1]; Dosage 80 g/ha
  herbicidal action DIGSA: 90
Digitaria sanguinalis [2]
  herbicidal activity DIGSA: 100%

## CSCc1c(Cl)ccc(C(=O)Nc2nnnn2C)c1Cl [Example 1-559]
Lolium multiflorum; post-emergence, dosage 80 g/ha
  herbicidal action LOLMU: 100%

## CCSCc1c(C(F)(F)F)ccc(C(=O)Nc2nnnn2CC)c1C [Example 2-86]
Lolium multiflorum; post-emergence, dosage 80 g/ha
  herbicidal action LOLMU: 90%

## CCn1nnnc1NC(=O)c1ccc(C(F)F)c(CSC)c1SC [Example 2-170]
Digitaria sanguinalis [1]; Dosage 80 g/ha
  herbicidal action DIGSA: 100
Digitaria sanguinalis [2]
  herbicidal activity DIGSA: 100%

## CCn1nnnc1NC(=O)c1ccc(C(F)F)c(C[S+](C)[O-])c1SC (centres unmarked) [Example 2-171]
Digitaria sanguinalis [1]; Dosage 80 g/ha
  herbicidal action DIGSA: 90
Digitaria sanguinalis [2]
  herbicidal activity DIGSA: 100%

## CCn1nnnc1NC(=O)c1ccc(C(F)(F)F)c(CSC)c1Cl [Example 2-296]
Lolium multiflorum; post-emergence, dosage 80 g/ha
  herbicidal action LOLMU: 90%

## CCn1nnnc1NC(=O)c1ccc(C(F)(F)F)c(C[S+](C)[O-])c1Cl (centres unmarked) [Example 2-297]
Lolium multiflorum; post-emergence, dosage 80 g/ha
  herbicidal action LOLMU: 90%

## CCSCc1c(C(F)(F)F)ccc(C(=O)Nc2nnnn2CC)c1Cl [Example 2-299]
Lolium multiflorum; post-emergence, dosage 80 g/ha
  herbicidal action LOLMU: 90%

## CCn1nnnc1NC(=O)c1ccc(C(F)(F)F)c(CSCC(F)(F)F)c1Cl [Example 2-311]
Hordeum murinum; Dosage 80 g/ha
  herbicidal action HORMU: 80

## CCn1nnnc1NC(=O)c1ccc(C(F)(F)F)c(C[S+]([O-])CC2CC2)c1Cl (centres unmarked) [Example 2-315]
Digitaria sanguinalis [1]; Dosage 80 g/ha
  herbicidal action DIGSA: 100
Digitaria sanguinalis [2]
  herbicidal activity DIGSA: 100%

## CCn1nnnc1NC(=O)c1ccc(C(F)F)c(CSC)c1Cl [Example 2-320]
Lolium multiflorum; Dosage 80 g/ha
  herbicidal action LOLMU: 80

## CCn1nnnc1NC(=O)c1ccc(C(F)F)c(CS(C)(=O)=O)c1Cl [Example 2-322]
Lolium multiflorum; post-emergence, dosage 80 g/ha
  herbicidal action LOLMU: 80%

## CCSCc1c(C(F)F)ccc(C(=O)Nc2nnnn2CC)c1Cl [Example 2-323]
Lolium multiflorum; post-emergence, dosage 80 g/ha
  herbicidal action LOLMU: 80%

## CCn1nnnc1NC(=O)c1ccc(C(F)F)c(C[S+]([O-])CC)c1Cl (centres unmarked) [Example 2-324]
Digitaria sanguinalis [1]; post-emergence, dosage 80 g/ha
  herbicidal action DIGSA: 100%
Hordeum murinum; post-emergence, dosage 80 g/ha
  herbicidal action HORMU: 90%
Digitaria sanguinalis [2]
  herbicidal activity DIGSA: 100%

## CCn1nnnc1NC(=O)c1ccc(I)c(C[S+](C)[O-])c1Cl (centres unmarked) [Example 2-363]
Hordeum murinum; Dosage 80 g/ha
  herbicidal action HORMU: 90

## CCn1nnnc1NC(=O)c1ccc(C(F)(F)F)c(C[S+]([O-])CC)c1Br (centres unmarked) [Example 2-384]
Lolium multiflorum; post-emergence, dosage 80 g/ha
  herbicidal action LOLMU: 80%

## CCCn1nnnc1NC(=O)c1ccc(C(F)(F)F)c(CS(C)(=O)=O)c1SC [Example 3-163]
Hordeum murinum; Dosage 80 g/ha
  herbicidal action HORMU: 80

## CCCn1nnnc1NC(=O)c1ccc(C(F)F)c(CSC)c1SC [Example 3-170]
Digitaria sanguinalis [1]; Dosage 80 g/ha
  herbicidal action DIGSA: 100
Digitaria sanguinalis [2]
  herbicidal activity DIGSA: 100%

## CCCn1nnnc1NC(=O)c1ccc(C(F)F)c(C[S+](C)[O-])c1SC (centres unmarked) [Example 3-171]
Digitaria sanguinalis [1]; Dosage 80 g/ha
  herbicidal action DIGSA: 90
Digitaria sanguinalis [2]
  herbicidal activity DIGSA: 100%

## CCCn1nnnc1NC(=O)c1ccc(C(F)F)c(CS(C)(=O)=O)c1SC [Example 3-172]
Digitaria sanguinalis [1]; Dosage 80 g/ha
  herbicidal action DIGSA: 90
Digitaria sanguinalis [2]
  herbicidal activity DIGSA: 100%

## CCCn1nnnc1NC(=O)c1ccc(C(F)(F)F)c(CSCC(F)(F)F)c1Cl [Example 3-311]
Hordeum murinum; Dosage 80 g/ha
  herbicidal action HORMU: 90

## CCCn1nnnc1NC(=O)c1ccc(C(F)(F)F)c(CSCC2CC2)c1Cl [Example 3-314]
Hordeum murinum; post-emergence, dosage 80 g/ha
  herbicidal action HORMU: 90%

## CCCn1nnnc1NC(=O)c1ccc(C(F)F)c(CS(=O)(=O)CC)c1Cl [Example 3-325]
Hordeum murinum; Dosage 80 g/ha
  herbicidal action HORMU: 90
